The data set concerns Transferrin. The following applies: human, serum. The protocol:
Bei diesen Vergleichsversuchen wurde ¹¹¹In sowohl mit den bekannten 12- und 14-Ring-Cyclamen als auch mit dem erfindungsgemäßen Cyclam aus Beispiel 1 komplexiert und anschließend jeweils der ¹¹¹In-Austausch gegen Transferrin - ein bekanntermaßen gutes Komplexierungsmittel - in humanem Serum bei 37°C untersucht.

Like-named read-outs stand apart in the source and are kept apart here. Bounds are passed on as bounds.

Dodecatetraacetate [DOTA]: the “¹¹¹In-Austausch gegen Transferrin” value reads like this: (12 h) “ca. 0,3%”; (120 h) “ca. 4%”.
In the case of “12-(p-Nitrobenzyl)-1,4,7,10-tetraacetat-1,4,7,10-tetraazacyclotridecan [Beispiel 1]”, the “¹¹¹In-Austausch gegen Transferrin” value is < 0,1% (12 h) and “ca. 1%” (120 h).
